Measurements published in ChEMBL document CHEMBL3045889 (Pest Manag Sci, 2012).

Test system: Fusarium graminearum
Assay: Antifungal activity against Fusarium graminearum JT04 assessed as inhibition of mycelial growth
Assay type: functional, organism-based

Compound COC(=O)Nc1nc2ccccc2[nH]1 [CARBENDAZIM] has an MIC greater than 200 µg/mL.
